Article PMC7050772 (Cellular physiology and biochemistry : international …, 2020)
Where two headings read alike, the source gives them in different places.

Legend:
[1] = molecular target: T1, cytochrome P450 1A1 (CYP1A1) (Homo sapiens, UniProt P04798); assay: P450-Glo Luc-CEE luminescence assay with recombinant CYP1A1 microsomes; format: biochemical
T1 sequence (P04798 1-512): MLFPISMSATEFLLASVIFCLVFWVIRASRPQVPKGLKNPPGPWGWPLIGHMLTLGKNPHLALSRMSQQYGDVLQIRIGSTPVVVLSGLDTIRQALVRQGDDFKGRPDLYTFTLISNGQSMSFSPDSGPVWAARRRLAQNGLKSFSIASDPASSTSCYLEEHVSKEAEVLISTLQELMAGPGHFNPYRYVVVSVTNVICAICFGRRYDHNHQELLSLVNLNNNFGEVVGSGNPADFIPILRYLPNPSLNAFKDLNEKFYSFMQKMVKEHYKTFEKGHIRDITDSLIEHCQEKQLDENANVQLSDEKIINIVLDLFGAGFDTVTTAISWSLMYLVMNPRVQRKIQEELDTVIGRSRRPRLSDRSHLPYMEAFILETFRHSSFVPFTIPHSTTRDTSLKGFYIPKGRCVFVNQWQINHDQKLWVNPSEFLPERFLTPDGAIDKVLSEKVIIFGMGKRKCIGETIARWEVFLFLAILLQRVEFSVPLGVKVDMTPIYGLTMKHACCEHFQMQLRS

[2] = molecular target: T1, cytochrome P450 1A1 (CYP1A1); assay: as above; format: biochemical; remark: listed apart in the source

Molecule `NCCc1c[nH]c2ccccc12` [TRYPT, Tryptamine] has an IC50 [1] of 1400 nM.

`NCCc1c[nH]c2ccc(O)cc12` [5-HT, Serotonin] was tested, and the IC50 [2] was 1620 nM.

Work on `O=c1cc(-c2ccccc2)oc2c1ccc1ccccc12` [α-NF, α-naphthoflavone, reference compound] yielded an IC50 [1] of 760 nM.
